The values below come from US20170115265A1, “Use of Visibly Detectable Compounds as Performance Reference Compounds in Passive Sampling Devices” (Geosyntec Consultants, Inc., priority 2015, published 2017).

The structures appear in SMILES notation. Like-named read-outs stand apart in the source and are kept apart here.

For series [1] the following is noted: cited from earlier work; for Log KOW value (may be estimate): common dyes, Table 1, values said to be known; for Log KOW value: drugs, reported by Scheytt et al. 2005; for Log KOW: source not stated.
A short description of series [2]: Example 1: elimination of PRCs from PE passive sampling devices deployed 14 days in marine aquatic sediment. It counts as physicochemical. To be noted: PE PSD at Station 6, marine sediment. The source says: Twenty PSDs were created (each consisting of a 4×10 cm piece of PE). Ten of the PSDs were spiked with PCB-36 (which is not visibly detectable) and ten of the PSDs were spiked with Sudan III, a visibly detectable PRC within the scope of the present disclosure. The 20 spiked PSDs then were inserted in the top 10 cm of aquatic sediment at a marine (ocean) site by scuba divers at ten locations within a half-acre area. At each of the 10 locations, one PSD containing PCB-36 and one PSD containing Sudan III were deployed.
After 14 days, the PSDs were collected by divers, brought to the surface, placed in a shipping container, and sent to a laboratory, where they were wiped with moistened tissues, placed in small vials, and extracted with solvent. […] The 13 solvents (from extraction of 10 exposed PSDs and 3 trip blanks PSDs) into which the PCB-36-spiked PSDs were extracted were then measured for PCBs using high-resolution gas chromatography/high-resolution mass spectrometry with an approximate 30- to 60-minute analysis time per sample. Via this analysis, the concentrations of PCB-36 in the 13 PCB-36-spiked PSDs were determined. […] Via this analysis, the concentration of Sudan III in the 13 Sudan III-spiked PSDs was determined. […]

The nature of series [3]: polyethylene-water partition coefficient (KPE) of PCBs according to Smedes et al. It counts as physicochemical. The note with it: Log10 of the cited KPE. From the text:
Assuming the KPE values are roughly similar (i.e., within 10%) between the dye and the analyte of interest, the dye could also be an appropriate PRC to use for other compounds. For example, given that KPE Sudan III KPE is 390,000 L/kg, Sudan III could be used as a PRC for compounds with KPE values from 350,000 L/kg to 430,000 L/kg.

Series [4] can be described thus: Example 2: hypothetical 28-day sediment deployment of PE PSD spiked with three dye PRCs. It counts as physicochemical. To be noted: for Log10-transformed ke (hypothetical) / ke (hypothetical): PE PSD 28 days in sediment. From the text:
Two PSD could be created (each consisting of a 4×10 cm piece of PE).
The KPE values of the 3 dyes are dissimilar to that of PCB-60, yet they may be used to provide a ke for PCB-60 according to the following approach. One PSD containing the three above dyes would be deployed into sediment for a period of 28 days, and the other PSD containing the three above dyes would be held in storage. Following retrieval of the PSD deployed in the sediment, both PSDs would be extracted in solvent (e.g., 50-mL mixture of hexane and methylene chloride). […] Concentrations of these dyes in the PE could be calculated assuming a known mass of each PE piece. The solvent extract of the PSD that had been exposed to the sediment for 28 days would be measured for PCBs using high-resolution gas chromatography/high-resolution mass spectrometry with an approximate 30- to 60-minute analysis time per sample. Via this analysis, the concentration of PCB-60 in the PSD that had been exposed to the sediment for 28 days could be determined.
(§1) A linear regression model would then be estimated using the Log10 ke values as the dependent variable (y axis) and the Log10 KPE values as the independent variable […].
FIG. 2 is a line graph showing this equation plotted as Log10 Ke (day-1) versus Log10 KPE (liters/kg/PE). […] By using the equation from the plot shown in FIG. 2, the predicted ke value of PCB-60 could be interpolated from its known KPE value.

A short description of series [5]: Example 7: elimination of dye PRCs from PE PSDs in jars of sediment and water agitated 14 days on a shaker table. To be noted: PE PSD. It counts as physicochemical.
Description: Two additional 3×3 cm PSDs were spiked with 10 unlabeled PCB PRCs that are not visibly detectable, but are routinely used as PRCs in passive sampling applications.
The five jars containing the PSDs were closed and agitated for a period of 14 days on a shaker table. The other four dye-spiked PSDs and PCB-spiked PSD were held in storage. Following retrieval of the PSDs deployed in the sediment after 14 days, the PSDs were extracted in solvent (e.g., 50-mL mixture of hexane and methylene chloride). […] Concentrations of these dyes in the PE could be calculated assuming a known mass of each PE piece. The solvent extracts of the PSDs that had been exposed to the sediment for 14 days and held in storage for 14 days would be measured for PCBs using high-resolution gas chromatography/high-resolution mass spectrometry with an approximate 30- to 60-minute analysis time per sample.
as §1

Series [6] in a line: Example 8: Sudan III elimination from PE PSDs, marine sediment versus agitated sediment, 14 days. It counts as physicochemical. The protocol:
Six 3×3 cm PSDs and fourteen 4×10 cm PSDs were spiked with Sudan III dye. Eleven of the larger (4×10 cm) PSDs were inserted in the top 10 cm of aquatic sediment at a marine (ocean) site by scuba divers at ten locations within a half-acre area. Three of the smaller (3×3 cm) PSDs were deployed into […] 8-oz jars containing approximately 100 g (wet weight) sediment and 150 mL water. The three jars containing the PSDs were closed and agitated for a period of 14 days on a shaker table. […] The solvents from the PSDs were analyzed on a benchtop UV/Vis spectrophotometer at wavelengths of 465 nm (to indicate the concentration of Sudan III in the solvent). Concentrations of these dyes in the PE could be calculated assuming a known mass of each PE piece.
Using the average concentrations of Sudan III in the unexposed PSDs (to represent the t=0 concentration) and the concentration of Sudan III in the PSDs that had been exposed to the marine sediment and agitated sediment for 14 days (the time t concentrations), one could estimate the ke values using the equation provided in Example 1. […] Thus, the dye approach can be used to quantify the increase in sampling rates for various methods (i.e., unagitated deployments, various types of agitated deployments), and provides a low cost and efficient method compared to other PRCs.

Take `COc1ccc(OC)c(N=Nc2c(O)ccc3ccccc23)c1` [Citrus Red 2]: the “Log KOW value (may be estimate)” value in series [1] is on record as 5.67.
On to `CC(C)(Oc1ccc(Cl)cc1)C(=O)O` [Clofibric acid], for which the “Log KOW value” in series [1] was 2.88.
As to `O=C(O)Cc1ccccc1Nc1c(Cl)cccc1Cl` [Diclofenac], the “Log KOW value” in series [1] is reported as 1.9.
On to `CC(C)Cc1ccc(C(C)C(=O)O)cc1` (centres unmarked) [Ibuprofen], for which the “Log KOW value” in series [1] is 2.48.
For `O=C1/C(=C2\Nc3ccccc3C2=O)Nc2ccccc21` [Indigo dye], in series [1], the “Log KOW value (may be estimate)” value is on record as 3.7.
In series [2], `Clc1cccc(-c2cc(Cl)cc(Cl)c2)c1` [PCB-36] showed an elimination rate ke of 0.043 day⁻¹.
Turning to `Clc1ccc(-c2ccc(Cl)c(Cl)c2Cl)cc1` [PCB-60], the “Log10 KPE” value in series [3] was found to be 5.9 L/kg PE. Moreover, the “estimated hypothetical ke interpolated from KPE” value in series [4] (from regression of FIG. 2) is 0.028 day⁻¹.
Turning to `Cc1c(C(C)C)c(=O)n(-c2ccccc2)n1C` [Propyphenazone], in series [1], the “Log KOW value” is on record as 2.02.
`CCN(CC)c1ccc2c(-c3ccccc3C(=O)O)c3ccc(=[N+](CC)CC)cc-3oc2c1.[Cl-]` [Rhodamine B]: the “Log KOW” value in series [1] (dye compounds of Table 2) is 1.8.
`Cc1ccc(Nc2ccc(O)c3c2C(=O)c2ccccc2C3=O)cc1` [Solvent Violet 13] came in with a ke in series [5] of 0.16 day⁻¹. Moreover, in series [4], the “Log10-transformed ke (hypothetical)” value is listed as -1.7 day^−1 and the “ke (hypothetical)” value is 0.02 day⁻¹. In series [1] (dye compounds of Table 2), the “Log KOW” value is 6.2. Also, the “Log KOW” value in series [1] (dye compounds of Table 4) was 6.2.
Regarding `CC1(C)Nc2cccc3c(N=Nc4ccc(N=Nc5ccccc5)c5ccccc45)ccc(c23)N1` [Sudan Black B], in series [5], the Log10-transformed ke is -3.1 log10(day^−1) and the ke turned out to be 0.00072 day⁻¹. For the same compound, the “Log KOW” value in series [1] (dye compounds of Table 4) was 8.8.
On to `Oc1ccc2ccccc2c1N=Nc1ccc(N=Nc2ccccc2)cc1` [Sudan III], for which the average ke in series [6] (agitated sediment (shaker table)) was determined as 0.094 day⁻¹; in series [6] (marine sediment (unagitated)), 0.030 day⁻¹. The compound further returned a ke in series [5] of 0.046 day⁻¹. Further, the “Log10-transformed ke (hypothetical)” value in series [4] is reported as −1.4 day^−1. Also, the “ke (hypothetical)” value in series [4] was 0.04 day⁻¹. Further, the “Log KOW” value in series [1] (dye compounds of Table 2) and in series [1] (dye compounds of Table 4) was 5.7 throughout. The compound further returned an elimination rate ke in series [2] of 0.032 day⁻¹.
For the compound `Oc1ccc2ccccc2c1N=Nc1ccccc1` [Sudan I], in series [1] (dye compounds of Table 2), the “Log KOW” value is on record as 5.5.
`Oc1ccc(N=Nc2ccccc2)c(O)c1` [Sudan Orange G] yielded a ke in series [5] of 0.41 day⁻¹. The “Log10-transformed ke (hypothetical)” value in series [4] is listed as −0.1 day^−1. In addition, in series [4], the “ke (hypothetical)” value worked out at 0.8 day⁻¹. The “Log KOW” value in series [1] (dye compounds of Table 2) and in series [1] (dye compounds of Table 4) was 3.9 throughout.
